Measured values reported in article PMC6339850 (ACS chemical neuroscience, 2018).

Legend:
mouse MC4R [1] = molecular target: T1, mouse MC4R (Mus musculus, UniProt P56450); assay: cAMP AlphaScreen antagonist assay; details: highest assayed concentrations
mouse MC5R [2] = molecular target: T2, mouse MC5R (Mus musculus, UniProt P41149); details: for mMC5R inverse agonist, percent change from basal at 100 μM / mMC5R percent maximal stimulatory response at 100 μM: 100000.0; for MC5R activity in words: up to 100 μM
mouse MC1R [3] = molecular target: T3, mouse MC1R (Mus musculus, UniProt Q01727); assay: cell-based
mouse MC1R [4] = molecular target: T3, mouse MC1R; details: for mMC1R percent maximal stimulatory response at 100 μM: 100000.0; for MC1R potency increase compared to the starting ligand 2: agonist potency relative to 2
mouse MC4R [5] = molecular target: T1, mouse MC4R; assay: cAMP AlphaScreen agonist assay, HEK293 cells stably expressing mouse MC4R; details: agonist (up to 100 μM) and antagonist activity at the concentrations assayed
mouse MC3R [6] = molecular target: T4, mouse MC3R (Mus musculus, UniProt P33033); details: for MC3R activity in words: agonist (up to 100 μM) and antagonist activity at the concentrations assayed; for mMC3R percent maximal stimulatory response at 100 μM: 100000.0
mouse MC5R [7] = molecular target: T2, mouse MC5R; assay: cell-based
mouse MC3R [8] = molecular target: T4, mouse MC3R; assay: cAMP AlphaScreen antagonist assay
mouse MC3R [9] = molecular target: T4, mouse MC3R; assay: cell-based
[10] = molecular target: mouse melanocortin-3 receptor (mouse) (UniProt P33033)
[11] = molecular target: mouse melanocortin-4 receptor (mouse) (UniProt P56450)
[12] = molecular target: mouse melanocortin-5 receptor (mouse) (UniProt P41149)
Chain of mouse melanocortin-5 receptor (mouse) (P41149 whole entry): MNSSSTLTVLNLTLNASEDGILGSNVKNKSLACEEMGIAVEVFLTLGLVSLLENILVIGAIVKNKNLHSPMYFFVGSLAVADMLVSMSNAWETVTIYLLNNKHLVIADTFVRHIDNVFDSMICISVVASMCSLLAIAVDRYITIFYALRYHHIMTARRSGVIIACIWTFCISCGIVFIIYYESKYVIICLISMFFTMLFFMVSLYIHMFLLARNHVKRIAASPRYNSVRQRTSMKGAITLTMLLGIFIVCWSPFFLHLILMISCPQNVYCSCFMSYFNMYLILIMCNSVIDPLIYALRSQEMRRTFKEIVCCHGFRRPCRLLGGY

Chain of mouse melanocortin-3 receptor (mouse) (P33033 whole entry): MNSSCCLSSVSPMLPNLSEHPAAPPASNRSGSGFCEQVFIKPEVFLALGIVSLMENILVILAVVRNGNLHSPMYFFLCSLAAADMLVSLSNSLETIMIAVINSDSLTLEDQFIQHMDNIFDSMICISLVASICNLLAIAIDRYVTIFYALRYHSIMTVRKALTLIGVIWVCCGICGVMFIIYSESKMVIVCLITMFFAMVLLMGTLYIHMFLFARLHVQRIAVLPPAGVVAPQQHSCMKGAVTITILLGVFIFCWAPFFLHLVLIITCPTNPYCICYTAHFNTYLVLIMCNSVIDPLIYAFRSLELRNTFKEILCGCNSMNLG
T4 sequence (P33033 whole entry): as above
T1 sequence (P56450 whole entry): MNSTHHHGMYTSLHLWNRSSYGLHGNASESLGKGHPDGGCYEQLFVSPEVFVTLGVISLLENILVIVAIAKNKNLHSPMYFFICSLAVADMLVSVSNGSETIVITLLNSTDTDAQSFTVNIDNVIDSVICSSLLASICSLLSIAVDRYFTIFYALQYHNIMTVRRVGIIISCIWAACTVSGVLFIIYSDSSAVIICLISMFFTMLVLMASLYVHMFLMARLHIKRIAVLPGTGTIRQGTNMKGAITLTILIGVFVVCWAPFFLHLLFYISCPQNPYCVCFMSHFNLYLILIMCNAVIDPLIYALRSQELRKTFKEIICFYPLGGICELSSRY
Chain of mouse melanocortin-4 receptor (mouse) (P56450 whole entry): as above
T2 sequence (P41149 whole entry): as the sequence (P41149 whole entry) above
T3 sequence (Q01727 whole entry): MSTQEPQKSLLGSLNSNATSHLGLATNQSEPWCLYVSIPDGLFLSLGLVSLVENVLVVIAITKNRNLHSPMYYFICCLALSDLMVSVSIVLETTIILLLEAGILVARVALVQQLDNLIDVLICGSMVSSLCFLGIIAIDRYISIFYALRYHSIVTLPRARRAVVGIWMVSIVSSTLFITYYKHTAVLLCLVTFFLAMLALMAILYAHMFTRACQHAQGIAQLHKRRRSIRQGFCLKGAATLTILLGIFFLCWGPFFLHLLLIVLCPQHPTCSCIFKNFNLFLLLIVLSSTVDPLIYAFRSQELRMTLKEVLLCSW

Compound: C[C@@H]1NC(=O)[C@H](CC(N)=O)NC(=O)[C@H](Cc2ccccc2)NC(=O)[C@H](Cc2ccccc2)NC(=O)[C@@H](CCCNC(=N)N)NC(=O)[C@@H]2CCCN2C(=O)[C@H]2CCCN2C(=O)[C@H](Cc2ccccc2)NC1=O [Peptide 3, c[Pro-DArg-Phe-Phe-Asn-Ala-Phe-DPro]]
- MC4R antagonist activity in words (mouse MC4R [1]): did not possess antagonist activity

Compound: C[C@@H]1NC(=O)[C@H](CC(N)=O)NC(=O)[C@H](Cc2ccccc2)NC(=O)[C@@H](Cc2ccccc2)NC(=O)[C@H](CCCNC(=N)N)NC(=O)[C@@H]2CCCN2C(=O)[C@H]2CCCN2C(=O)[C@H](Cc2ccccc2)NC1=O [Peptide 4, c[Pro-Arg-DPhe-Phe-Asn-Ala-Phe-DPro]]
- mMC5R inverse agonist, percent change from basal at 100 μM (mouse MC5R [2]): 25%
- MC5R activity in words (mouse MC5R [2]): apparent inverse agonist activity
- EC50 (mouse MC1R [3]): 700 nM

Compound: C[C@@H]1NC(=O)[C@H](CC(N)=O)NC(=O)[C@@H](Cc2ccccc2)NC(=O)[C@H](Cc2ccccc2)NC(=O)[C@H](CCCNC(=N)N)NC(=O)[C@@H]2CCCN2C(=O)[C@H]2CCCN2C(=O)[C@H](Cc2ccccc2)NC1=O [Peptide 5, c[Pro-Arg-Phe-DPhe-Asn-Ala-Phe-DPro]]
- mMC1R percent maximal stimulatory response at 100 μM (mouse MC1R [4]): 50%
- MC4R activity in words (mouse MC4R [5]): loss of agonist and antagonist activities

Compound: C[C@@H]1NC(=O)[C@H](CC(N)=O)NC(=O)[C@H](Cc2ccccc2)NC(=O)[C@@H](Cc2ccccc2)NC(=O)[C@@H](CCCNC(=N)N)NC(=O)[C@@H]2CCCN2C(=O)[C@H]2CCCN2C(=O)[C@H](Cc2ccccc2)NC1=O [Peptide 6, c[Pro-DArg-DPhe-Phe-Asn-Ala-Phe-DPro]]
- MC3R activity in words (mouse MC3R [6]): No activity was observed
- mMC5R percent maximal stimulatory response at 100 μM (mouse MC5R [2]): 55%
- EC50 (mouse MC1R [3]): 500 nM
- MC4R activity in words (mouse MC4R [5]): No activity was observed
- MC4R antagonist activity in words (mouse MC4R [1]): did not possess antagonist activity

Compound: C[C@@H]1NC(=O)[C@H](CC(N)=O)NC(=O)[C@@H](Cc2ccccc2)NC(=O)[C@H](Cc2ccccc2)NC(=O)[C@@H](CCCNC(=N)N)NC(=O)[C@@H]2CCCN2C(=O)[C@H]2CCCN2C(=O)[C@H](Cc2ccccc2)NC1=O [Peptide 7, c[Pro-DArg-Phe-DPhe-Asn-Ala-Phe-DPro]]
- mMC3R percent maximal stimulatory response at 100 μM (mouse MC3R [6]): 35%
- MC5R activity in words (mouse MC5R [2]): full agonist
- MC4R antagonist activity in words (mouse MC4R [1]): did not possess antagonist activity

Compound: C[C@@H]1NC(=O)[C@H](CC(N)=O)NC(=O)[C@@H](Cc2ccccc2)NC(=O)[C@@H](Cc2ccccc2)NC(=O)[C@H](CCCNC(=N)N)NC(=O)[C@@H]2CCCN2C(=O)[C@H]2CCCN2C(=O)[C@H](Cc2ccccc2)NC1=O [Peptide 8, c[Pro-Arg-DPhe-DPhe-Asn-Ala-Phe-DPro]]
- EC50 (mouse MC1R [3]): 800 nM

Compound: C[C@@H]1NC(=O)[C@H](CC(N)=O)NC(=O)[C@@H](Cc2ccccc2)NC(=O)[C@@H](Cc2ccccc2)NC(=O)[C@@H](CCCNC(=N)N)NC(=O)[C@@H]2CCCN2C(=O)[C@H]2CCCN2C(=O)[C@H](Cc2ccccc2)NC1=O [Peptide 9, c[Pro-DArg-DPhe-DPhe-Asn-Ala-Phe-DPro]]
- MC3R activity in words (mouse MC3R [6]): No agonist or antagonist activity was observed
- mMC5R percent maximal stimulatory response at 100 μM (mouse MC5R [2]): 55%
- EC50 (mouse MC1R [3]): 1300 nM
- MC4R activity in words (mouse MC4R [5]): No agonist or antagonist activity was observed
- MC4R antagonist activity in words (mouse MC4R [1]): did not possess antagonist activity

Compound: C[C@@H]1NC(=O)[C@H](CN)NC(=O)[C@H](Cc2ccccc2)NC(=O)[C@H](Cc2ccccc2)NC(=O)[C@@H](CCCNC(=N)N)NC(=O)[C@@H]2CCCN2C(=O)[C@H]2CCCN2C(=O)[C@H](Cc2ccccc2)NC1=O [Peptide 10, c[Pro-DArg-Phe-Phe-Dap-Ala-Phe-DPro]]
- mMC1R percent maximal stimulatory response at 100 μM (mouse MC1R [4]): 25%
- mMC3R percent maximal stimulatory response at 100 μM (mouse MC3R [6]): 25%
- MC5R activity in words (mouse MC5R [2]): no activity was observed
- EC50 (mouse MC5R [7]): > 100000 nM
- Kb (mouse MC3R [8]): 2000 nM

Compound: C[C@@H]1NC(=O)[C@H](CN)NC(=O)[C@H](Cc2ccccc2)NC(=O)[C@@H](Cc2ccccc2)NC(=O)[C@H](CCCNC(=N)N)NC(=O)[C@@H]2CCCN2C(=O)[C@H]2CCCN2C(=O)[C@H](Cc2ccccc2)NC1=O [Peptide 11, c[Pro-Arg-DPhe-Phe-Dap-Ala-Phe-DPro]]
- MC1R potency increase compared to the starting ligand 2 (mouse MC1R [4]): > 1,000 fold
- MC3R activity in words (mouse MC3R [6]): No agonist activity was observed
- MC5R activity in words (mouse MC5R [2]): No agonist activity was observed
- EC50 (mouse MC1R [3]): 230 ± 80 nM
- EC50 (mouse MC3R [9]): > 100000 nM
- EC50 (mouse MC5R [7]): > 100000 nM
- Kb (mouse MC3R [8]): 1200 nM

Compound: C[C@@H]1NC(=O)[C@H](CN)NC(=O)[C@@H](Cc2ccccc2)NC(=O)[C@H](Cc2ccccc2)NC(=O)[C@H](CCCNC(=N)N)NC(=O)[C@@H]2CCCN2C(=O)[C@H]2CCCN2C(=O)[C@H](Cc2ccccc2)NC1=O [Peptide 12, c[Pro-Arg-Phe-DPhe-Dap-Ala-Phe-DPro]]
- MC3R activity in words (mouse MC3R [6]): No activity was observed
- MC5R activity in words (mouse MC5R [2]): No activity was observed
- EC50 (mouse MC1R [3]): 800 nM
- EC50 (mouse MC3R [9]): > 100000 nM
- EC50 (mouse MC5R [7]): > 100000 nM
- Kb (mouse MC3R [8]): > 3160 nM

Compound: C[C@@H]1NC(=O)[C@H](CN)NC(=O)[C@H](Cc2ccccc2)NC(=O)[C@@H](Cc2ccccc2)NC(=O)[C@@H](CCCNC(=N)N)NC(=O)[C@@H]2CCCN2C(=O)[C@H]2CCCN2C(=O)[C@H](Cc2ccccc2)NC1=O [Peptide 13, c[Pro-DArg-DPhe-Phe-Dap-Ala-Phe-DPro]]
- mMC5R inverse agonist, percent change from basal at 100 μM (mouse MC5R [2]): 30%
- MC5R activity in words (mouse MC5R [2]): apparent inverse agonist activity
- EC50 (mouse MC1R [3]): 800 nM
- EC50 (mouse MC3R [9]): > 100000 nM
- Kb (mouse MC3R [8]): 1000 nM

Compound: C[C@@H]1NC(=O)[C@H](CN)NC(=O)[C@@H](Cc2ccccc2)NC(=O)[C@H](Cc2ccccc2)NC(=O)[C@@H](CCCNC(=N)N)NC(=O)[C@@H]2CCCN2C(=O)[C@H]2CCCN2C(=O)[C@H](Cc2ccccc2)NC1=O [Peptide 14, c[Pro-DArg-Phe-DPhe-Dap-Ala-Phe-DPro]]
- mMC5R inverse agonist, percent change from basal at 100 μM (mouse MC5R [2]): 20%
- MC5R activity in words (mouse MC5R [2]): apparent inverse agonist activity
- EC50 (mouse MC1R [3]): 450 nM
- EC50 (mouse MC3R [9]): > 100000 nM
- Kb (mouse MC3R [8]): 2000 nM

Compound: C[C@@H]1NC(=O)[C@H](CN)NC(=O)[C@@H](Cc2ccccc2)NC(=O)[C@@H](Cc2ccccc2)NC(=O)[C@H](CCCNC(=N)N)NC(=O)[C@@H]2CCCN2C(=O)[C@H]2CCCN2C(=O)[C@H](Cc2ccccc2)NC1=O [Peptide 15, c[Pro-Arg-DPhe-DPhe-Dap-Ala-Phe-DPro]]
- MC1R potency increase compared to the starting ligand 2 (mouse MC1R [4]): > 1,000 fold
- MC5R activity in words (mouse MC5R [2]): no activity was observed
- EC50 (mouse MC1R [3]): 700 ± 300 nM
- EC50 (mouse MC3R [9]): > 100000 nM
- EC50 (mouse MC5R [7]): > 100000 nM
- Kb (mouse MC3R [8]): 2000 nM

Compound: C[C@@H]1NC(=O)[C@H](CN)NC(=O)[C@@H](Cc2ccccc2)NC(=O)[C@@H](Cc2ccccc2)NC(=O)[C@@H](CCCNC(=N)N)NC(=O)[C@@H]2CCCN2C(=O)[C@H]2CCCN2C(=O)[C@H](Cc2ccccc2)NC1=O [Peptide 16, c[Pro-DArg-DPhe-DPhe-Dap-Ala-Phe-DPro]]
- MC3R activity in words (mouse MC3R [6]): no activity
- mMC5R inverse agonist, percent change from basal at 100 μM (mouse MC5R [2]): 15%
- MC5R activity in words (mouse MC5R [2]): apparent inverse agonist activity
- EC50 (mouse MC1R [3]): 2200 nM
- EC50 (mouse MC3R [9]): > 100000 nM
- Kb (mouse MC3R [8]): > 3160 nM

Compound: c[Pro-Arg-DPhe-DPhe-Dap-Ala-Phe-DPro] (peptide)
- agonist EC50; cAMP AlphaScreen, HEK293 cells stably expressing mouse MC3R [10]: > 100000 nM
- agonist EC50; cAMP AlphaScreen, HEK293 cells stably expressing mouse MC4R [11]: > 100000 nM
- agonist EC50; cAMP AlphaScreen, HEK293 cells stably expressing mouse MC5R [12]: > 100000 nM

Compound: c[Pro-Arg-DPhe-Phe-Dap-Ala-Phe-DPro] (peptide)
- agonist EC50; cAMP AlphaScreen, HEK293 cells stably expressing mouse MC3R [10]: > 100000 nM
- agonist EC50; cAMP AlphaScreen, HEK293 cells stably expressing mouse MC5R [12]: > 100000 nM

Compound: c[Pro-Arg-Phe-DPhe-Dap-Ala-Phe-DPro] (peptide)
- agonist EC50; cAMP AlphaScreen, HEK293 cells stably expressing mouse MC3R [10]: > 100000 nM
- agonist EC50; cAMP AlphaScreen, HEK293 cells stably expressing mouse MC4R [11]: > 100000 nM
- agonist EC50; cAMP AlphaScreen, HEK293 cells stably expressing mouse MC5R [12]: > 100000 nM

Compound: c[Pro-DArg-DPhe-DPhe-Dap-Ala-Phe-DPro] (peptide)
- agonist EC50; cAMP AlphaScreen, HEK293 cells stably expressing mouse MC3R [10]: > 100000 nM
- agonist EC50; cAMP AlphaScreen, HEK293 cells stably expressing mouse MC4R [11]: > 100000 nM

Compound: c[Pro-DArg-DPhe-Phe-Dap-Ala-Phe-DPro] (peptide)
- agonist EC50; cAMP AlphaScreen, HEK293 cells stably expressing mouse MC3R [10]: > 100000 nM
- agonist EC50; cAMP AlphaScreen, HEK293 cells stably expressing mouse MC4R [11]: > 100000 nM

Compound: c[Pro-DArg-Phe-DPhe-Dap-Ala-Phe-DPro] (peptide)
- agonist EC50; cAMP AlphaScreen, HEK293 cells stably expressing mouse MC3R [10]: > 100000 nM
- agonist EC50; cAMP AlphaScreen, HEK293 cells stably expressing mouse MC4R [11]: > 100000 nM

Compound: c[Pro-DArg-Phe-Phe-Dap-Ala-Phe-DPro] (peptide)
- agonist EC50; cAMP AlphaScreen, HEK293 cells stably expressing mouse MC5R [12]: > 100000 nM
